Several values for one entry are separate records, joined by “and”; a condition that tells them apart may be missing. Equal entries are not always repeated.
Tests used:
[1] = molecular target: T1, recombinant human PFK-L (Homo sapiens, UniProt P17858); test: ALDO-TIM-G3PDH enzyme-linked kinetic assay, PFK-L; type: biochemical; details: PFK-L
T1 construct: made in house; host or cells: PFK-deficient Saccharomyces cerevisiae
T1 sequence (P17858 1-780): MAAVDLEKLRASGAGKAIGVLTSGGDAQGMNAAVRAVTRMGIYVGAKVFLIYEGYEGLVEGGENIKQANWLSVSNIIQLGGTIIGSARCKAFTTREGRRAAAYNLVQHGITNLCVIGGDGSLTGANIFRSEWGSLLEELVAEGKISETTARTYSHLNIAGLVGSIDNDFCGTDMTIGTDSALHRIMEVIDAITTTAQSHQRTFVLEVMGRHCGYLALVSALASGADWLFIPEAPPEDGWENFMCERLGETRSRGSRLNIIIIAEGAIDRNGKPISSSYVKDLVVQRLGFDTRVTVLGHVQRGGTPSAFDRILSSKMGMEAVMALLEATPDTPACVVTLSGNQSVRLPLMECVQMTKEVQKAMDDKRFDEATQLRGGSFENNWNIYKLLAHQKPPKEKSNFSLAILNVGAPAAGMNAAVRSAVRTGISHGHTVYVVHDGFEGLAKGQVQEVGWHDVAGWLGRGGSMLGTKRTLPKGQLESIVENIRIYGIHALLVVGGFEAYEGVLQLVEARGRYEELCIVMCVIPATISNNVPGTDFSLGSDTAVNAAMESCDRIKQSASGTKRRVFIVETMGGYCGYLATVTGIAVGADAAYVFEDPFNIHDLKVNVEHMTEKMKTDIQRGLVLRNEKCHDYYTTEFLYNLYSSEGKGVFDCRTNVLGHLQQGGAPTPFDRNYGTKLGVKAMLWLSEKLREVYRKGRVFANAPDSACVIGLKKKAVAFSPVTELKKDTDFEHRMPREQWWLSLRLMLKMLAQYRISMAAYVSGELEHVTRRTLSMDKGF
Description: (§1) Recombinant human PFKs were expressed in PFK-deficient Saccharomyces cerevisiae and purified using the methods described previously, adapting earlier materials and protocols. Production of PFK intended for use in ATP titration experiments used 1 mM F6P as a tetramer stabilising agent in protein purification and storage buffers. Production of PFK intended for use in F6P titration experiments used 1 mM ATP as a tetramer stabilising agent in protein purification and storage buffers. Experimental details on the purification and characterisation procedures including figures showing SDS–PAGE gels of the highly pure PFKs used in the kinetic experiments described in this work have been recently published.
(§2) Assay buffer consisted of 50 mM TEA, 100 mM KCl, 10 mM MgCl2, 1 mM Tris(2-carboxyethyl)phosphine hydrochloride (TCEP), 10% glycerol, pH 7.4. Assay mix consisted of 5 units/ml glycerol-3-phosphate dehydrogenase (G3PDH, Sigma–Aldrich G6880), 2.5 units/ml aldolase (Sigma–Aldrich A2714), 25 units/ml triosephosphate isomerase (TIM, Sigma–Aldrich T6258), and 1.25 mM NADH. ATP and F6P were obtained from Sigma–Aldrich (A2383 and F3627, respectively). For ATP titrations, 38 µl of buffer or ligand were added to a clear non-binding 96-well plate. 40 µl of assay mix containing 10 mM F6P (final concentration 4 mM) was added and the plate was incubated at 25°C for 5 min. An amount of 2 µl of PFK isoforms were added to each well from stock concentrations of 150 µg/ml and the reaction was immediately started with 20 µl of ATP at varying concentrations. For F6P titrations, 30 µl of buffer or ligand was added to a clear non-binding 96-well plate. An amount of 40 µl of assay mix containing 1.25 mM ATP (final concentration 0.5 mM) was added and the plate was incubated at 25°C for 5 min. An amount of 5 µl of PFK isoforms were added to each well from stock concentrations of 200 µg/ml and the reaction was immediately started with 20 µl F6P at varying concentrations. All ligands and substrates (including ATP) were used at pH 7.4. All metabolites were obtained from Sigma–Aldrich unless otherwise stated. […] A SpectraMax M5 Multi-Mode Microplate Reader was used to measure A340nm at 13 s intervals for 10 min. All experiments were performed in triplicate unless otherwise stated.
(§3) Time-dependent absorbance change was converted into rate of NADH oxidation (µM s^−1) or specific activity (µmol min^−1 mg protein^−1) using the Beer-Lambert law (molar extinction coefficient of NADH 6.22 mM^−1 cm^−1). The initial rate of reaction was used to avoid accumulation of ADP, which activates PFK, interfering with the determination of kinetic properties. Non-linear regression analysis was performed on substrate titration data using GraphPad Prism 7, with curves fitted using allosteric sigmoidal models, enabling determination of steady-state kinetic values.

[2] = molecular target: T2, recombinant human PFK-P (Homo sapiens, UniProt Q01813); test: ALDO-TIM-G3PDH enzyme-linked kinetic assay, PFK-P; type: biochemical
T2 construct: made in house; host or cells: PFK-deficient Saccharomyces cerevisiae
T2 sequence (Q01813 1-784): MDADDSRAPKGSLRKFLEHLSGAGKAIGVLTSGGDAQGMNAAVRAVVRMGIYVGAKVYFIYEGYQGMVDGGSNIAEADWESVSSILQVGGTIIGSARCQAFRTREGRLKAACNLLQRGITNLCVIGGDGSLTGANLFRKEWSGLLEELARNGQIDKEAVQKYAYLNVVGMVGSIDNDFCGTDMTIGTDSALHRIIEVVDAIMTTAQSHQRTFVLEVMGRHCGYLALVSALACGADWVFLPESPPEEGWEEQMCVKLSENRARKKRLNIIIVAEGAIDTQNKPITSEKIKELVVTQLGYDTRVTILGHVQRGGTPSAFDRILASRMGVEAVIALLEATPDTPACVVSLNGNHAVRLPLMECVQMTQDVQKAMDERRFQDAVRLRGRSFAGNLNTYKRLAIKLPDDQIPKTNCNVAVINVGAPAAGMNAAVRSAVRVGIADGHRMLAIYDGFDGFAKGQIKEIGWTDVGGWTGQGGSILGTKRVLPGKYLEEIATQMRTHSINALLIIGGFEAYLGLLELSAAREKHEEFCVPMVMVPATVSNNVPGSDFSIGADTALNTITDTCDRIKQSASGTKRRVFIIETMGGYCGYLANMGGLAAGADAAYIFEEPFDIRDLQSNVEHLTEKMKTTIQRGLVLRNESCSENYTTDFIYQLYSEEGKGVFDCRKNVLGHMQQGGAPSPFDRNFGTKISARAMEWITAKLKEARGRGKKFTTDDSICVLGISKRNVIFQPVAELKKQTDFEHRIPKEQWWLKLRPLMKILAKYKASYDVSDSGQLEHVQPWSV
Description: as §1, §2, §3

[3] = 1 mM ATP compared with 0.5 mM ATP
[4] = ATP titration, F6P 4 mM, n = 6, mean (SD)
[5] = Hill value, ATP titration, F6P 4 mM, n = 6, mean (SD)
[6] = control without modulator, run alongside modulator experiments, F6P 4mM, N=3, mean (SD)
[7] = GTP titration, F6P 4 mM, n = 3, mean (SD)
[8] = Hill value, GTP titration, F6P 4 mM, n = 3, mean (SD)
[9] = F6P titration, ATP 0.5 mM, n = 6, mean (SD)
[10] = control without modulator, run alongside modulator experiments, ATP 0.5mM, N=3, mean (SD)

Nc1ncnc2c1ncn2[C@@H]1O[C@H](COP(=O)(O)OP(=O)(O)OP(=O)(O)O)[C@@H](O)[C@H]1O [ATP]
decrease in specificity constant (ATP inhibition) [1, 3]: 31%
K0.5^ATP [1, 4]: 160 µM and 160.1 (13.5) µM
Vmax^ATP [1, 4]: 39.3 (1.2) µmoles/min.mg
kcat^ATP [1, 4]: 57.3 (1.7) s^−1
kcat^ATP/K0.5^ATP [1, 4]: 0.36 s^−1 µM^−1 and 0.36 (0.13) s^−1 µM^−1
h (ATP) [1, 5]: 1.12 (0.08)
K0.5ATP [1, 6]: 151.2 (16.9) M and 169.0 (21.5) M
VmaxATP [1, 6]: 39.26 (1.51) moles/min/mg and 39.36 (1.80) moles/min/mg
decrease in specificity constant (ATP inhibition) [2, 3]: 50%
K0.5^ATP [2, 4]: 275 µM and 276 µM and 275.6 (84.4) µM
Vmax^ATP [2, 4]: 27.2 (2.5) µmoles/min.mg
kcat^ATP [2, 4]: 39.7 (1.7) s^−1
kcat^ATP/K0.5^ATP [2, 4]: 0.14 s^−1 µM^−1 and 0.14 (0.02) s^−1 µM^−1
h (ATP) [2, 5]: 0.76 (0.09)
K0.5ATP [2, 6]: 326.9 (99.7) M and 217.9 (74.5) M
VmaxATP [2, 6]: 30.74 (2.92) moles/min/mg and 23.65 (2.40) moles/min/mg

Nc1nc2c(ncn2[C@@H]2O[C@H](COP(=O)(O)OP(=O)(O)OP(=O)(O)O)[C@@H](O)[C@H]2O)c(=O)[nH]1 [GTP]
K0.5^GTP [1, 7]: 158 µM and 157.8 (10.8) µM
Vmax^GTP [1, 7]: 25.39 (0.56) µmoles/min.mg
kcat^GTP [1, 7]: 37.0 (0.8) s^−1
kcat^GTP/K0.5^GTP [1, 7]: 0.23 s^−1 µM^−1 and 0.23 (0.07) s^−1 µM^−1
h (GTP) [1, 8]: 1.18 (0.08)
K0.5^GTP [2, 7]: 131 µM and 131 (20.9) µM
Vmax^GTP [2, 7]: 12.30 (0.62) µmoles/min.mg
kcat^GTP [2, 7]: 17.9 (0.9) s^−1
kcat^GTP/K0.5^GTP [2, 7]: 0.14 s^−1 µM^−1 and 0.14 (0.04) s^−1 µM^−1
h (GTP) [2, 8]: 1.12 (0.18)

O=C(CO)[C@@H](O)[C@H](O)[C@H](O)COP(=O)(O)O [F6P, fructose 6-phosphate]
K0.5^F6P [1, 9]: 1360 µM and 1360 (40) µM
K0.5F6P [1, 10]: 1432 (34) M and 1282 (53) M
K0.5^F6P [2, 9]: 1333 µM and 1333 (312) µM
K0.5F6P [2, 10]: 1238 (179) M and 1607 (90) M
